Measurements taken from patent US20250213636A1, “A […] ANAESTHETIC FORMULATION AND A METHOD OF PREPARATION” (priority 2022, published 2025).
Marks after values point to notes of the source that are not given here.

Experiments:
Wistar rats = assay: In vivo analgesia duration test using electrical stimulation (vocal response); set-up: species or system Wistar albino rats
Protocol: In vivo analgesia duration test was conducted using electrical stimulation testing, which was used as a means of determining analgesia in animals and humans (Grant et al., 2000). Testing for analgesia was done by a vocal response to electrical stimulation (beginning at 1 mA and increasing to a maximum of 8 mA) at the skin directly overlying the abdomen at the site of injection using a current generator. The abdominal hair of the experimental rats was shaved off, and they were screened prior to injection to determine their vocalization threshold, the current required to produce a vocalization response.
Animals will be treated in the following manner.
Polyherbal anaesthetic formulation, standard drug and 0.9% normal saline samples were injected subcutaneously into the abdomen of the experimental rats, followed by determination of analgesia at the fixed time intervals (5, 10, 20, 30, 40, 50, 60, and 70 min).

[1] = system: rats (tail, noxious heat stimulus); assay: Tail-flick latency (TFL) test of local anaesthetic effect; format: in vivo
Protocol: Local anaesthetic effects of LA-containing formulations were evaluated by tail-flick latency (TFL) test using a tail-flick measuring device (Ugo Basile, Varese, italy) (Puglia et al., 2011; Ouchi et al., 2013; Caffarel-Salvador et al., 2015). A noxious heat stimulus was applied via a focused, radiant heat light source to the dorsal surface of the tail. Tail-flick test started 5 min after the local application of different preparations, and the test was conducted every 10 min for 120 min. TFL was converted to represent the maximum possible effect (MPE) according to the following equation: […]
The baseline TFL was calculated as the mean of three different measurements taken at 10-min intervals. Baseline latencies were typically ranged from 2.5 to 3.0 s. A maximum cut-off latency of 10s was set to avoid tissue damage in analgesic animals. Results are expressed as mean±standard of eight rats per group.

SMILES: CCN(CC)CC(=O)Nc1c(C)cccc1C [lignocaine 2% solution, lignocaine]
- Median duration of analgesia (Wistar rats; 0.05 mL subcutaneous injection into abdomen, rats): 35 min
- Percentage (%) of animals with analgesia (Wistar rats; 5 minutes after 0.05 mL s.c.): 100.00** %
- Percentage (%) of animals with analgesia (Wistar rats; 10 minutes after 0.05 mL s.c.): 100.00** %
- Percentage (%) of animals with analgesia (Wistar rats; 20 minutes after 0.05 mL s.c.): 100.00** %
- Percentage (%) of animals with analgesia (Wistar rats; 30 minutes after 0.05 mL s.c.): 66.67** %
- Percentage (%) of animals with analgesia (Wistar rats; 40 minutes after 0.05 mL s.c.): 33.33** %
- Percentage (%) of animals with analgesia (Wistar rats; 50 minutes after 0.05 mL s.c.): 33.33** %
- Percentage (%) of animals with analgesia (Wistar rats; 60 minutes after 0.05 mL s.c.): 16.67** %
- Percentage (%) of animals with analgesia (Wistar rats; 70 minutes after 0.05 mL s.c.): 16.67** %
- Duration of anaesthetic effect/activity after application [1]: up to 30 min
